Experimental data from ChEMBL document CHEMBL4616654, “Irpexine, an Isoindolinone Alkaloid Produced by Coculture of Endophytic Fungi, Irpex lacteus and Phaeosphaeria oryzae” (J Nat Prod, 2020).
Active and inactive are the calls of the source.

Key:
[1] = tested on: Candida albicans; experiment: Antifungal activity against Candida albicans at 50 uM; format: functional, organism-based
[2] = tested on: Bacillus cereus; experiment: Antimicrobial activity against Bacillus cereus at 50 uM; format: functional, organism-based
[3] = tested on: Escherichia coli; experiment: Antimicrobial activity against Escherichia coli at 50 uM; format: functional, organism-based
[4] = tested on: HeLa; experiment: Cytotoxicity against human HeLa cells at 50 uM; format: functional, cell-based

Measured: Activity

CC(C)=CCc1ccc(O)c(C2c3c(O)cc(C(=O)O)cc3C(=O)N2CCO)c1O (stereo not drawn)
inactive: all assays above

O=c1c2cc3c(CO)cc4cc(O)cc(O)c4c3oc-2cc2cc(O)cc(O)c12
inactive: all assays above
